As a reminder, the melting point is the temperature of the solid-liquid transition.

The source of these data is US11426397B2, “Piperidinyl- and piperazinyl-substituted heteroaromatic carboxamides as modulators of GPR6” (TAKEDA PHARMACEUTICAL COMPANY LIMITED, priority 2017, dated 2022).

Series [1] has as its target T1, GPR6 receptor expressed in CHO-K1 cells (Homo sapiens, UniProt P46095).
T1 construct: expressed in transfected cells
Put plainly: In vitro inhibition of cAMP (EC50), cell-based HTRF cAMP assay. The following applies: inhibition of constitutive cAMP activity of GPR6 in CHO-K1 cells. The method in brief: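 Tetracycline-inducible CHO-K1 line, GPR6 expression induced 20 h with 2 μg/mL doxycycline. Compounds incubated 45 min at 37 °C in Ringer's buffer (pH 7.4) with 0.5% fatty acid free BSA and 300 μM IBMX. Constitutive cAMP read by Lance HTRF; EC50 from four-parameter logistic fit.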
Background: Time-resolved FRET reads energy transfer from a long-lived donor to a nearby acceptor.

Series [2] deals with haloperidol-induced catalepsy. Put plainly: In vivo Parkinson's disease model, haloperidol-induced catalepsy. Also on record: species or system mice. The settings on record: mouse catalepsy model, PO. An excerpt:
II. In Vivo Parkinson's Disease Model Haloperidol-Induced Catalepsy The motor symptoms of Parkinson's disease include akinesia, bradykinesia, rigidity, tremor and postural abnormalities and are associated with the loss of nigral dopaminergic cells and a decline in striatal dopamine levels. Administration of haloperidol to rodents leads to a transient Parkinsonian-like state that is reversed by the administration of levodopa and other drugs that have been clinically validated for the treatment of Parkinson's disease. See Duty, S. & Jenner, P. Br. J. Pharmacol. 164:1357-1391 (2011). Haloperidol antagonizes dopamine D2, and to a lesser extent, D1 receptors in medium spiny neurons that comprise the indirect and direct pathways of the motor circuit, respectively. The resultant block of striatal dopamine transmission results in abnormal downstream firing within the basal ganglia circuits that is manifest as symptoms of muscle rigidity and catalepsy. Catalepsy has been postulated to reflect the clinical features of Parkinson's disease, whereby patients experience an inability to initiate movements. Male C57B16 mice weighing 25-35 g are used. Catalepsy is induced by the subcutaneous (sc) administration of the dopamine receptor antagonist haloperidol (0.45 mg/kg) at least 30 minutes before testing the animals on a vertical grid test. For this test, the rats or mice are placed on a wire mesh cover of a 25 cm×43 cm plexiglass cage placed at an angle of about 70 degrees with the bench table. The subject is placed on the grid with all four legs abducted and extended (“frog posture”). The use of such an unnatural posture is essential for the specificity of this test for catalepsy. The time span from placement of the paws until the first complete removal of one paw (descent latency) is measured maximally for 120 seconds for rats. For mice, the front paws of the mouse is placed on a horizontal metal bar raised 2″ above a Plexiglas platform and time is recorded for up to 30 seconds per trial. The test ends when the animal's front paws return to the platform or after 30 seconds. The test is repeated three times and the average of the three trials is reported as the intensity index of catalepsy. Animals evaluated at 30 minutes after dosing are reevaluated at 60 or 90 minutes post dosing of haloperidol. Efficacy of GPR6 modulators to reverse haloperidol induced catalepsy is measured 30 minutes, 60 minutes, and/or 90 minutes after dosing the subjects with 0.45 mg/kg ip (intraperitoneal injection) of haloperidol along with the GPR6 modulator test compound. A representative number of compounds of Formula 1 are administered in a dose range from 0.1 to 100 mg/kg (po in 0.5% methyl cellulose) in conjunction with haloperidol. […]

T1 sequence (P46095 whole entry): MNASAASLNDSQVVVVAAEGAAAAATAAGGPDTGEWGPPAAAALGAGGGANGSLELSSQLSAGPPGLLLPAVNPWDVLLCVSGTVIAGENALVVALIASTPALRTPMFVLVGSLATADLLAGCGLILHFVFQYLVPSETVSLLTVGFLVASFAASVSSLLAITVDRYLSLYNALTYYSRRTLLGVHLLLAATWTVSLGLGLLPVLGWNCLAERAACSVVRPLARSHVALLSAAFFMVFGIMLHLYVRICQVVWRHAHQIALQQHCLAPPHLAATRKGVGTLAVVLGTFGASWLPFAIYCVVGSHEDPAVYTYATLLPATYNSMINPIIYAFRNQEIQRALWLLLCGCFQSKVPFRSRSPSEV

Regarding `COc1ccccc1C(=O)Nc1cc(S(C)(=O)=O)ccc1N1CCC(Oc2ccc(F)cc2F)CC1` [Example 6, N-(2-(4-(2,4-difluorophenoxy)piperidin-1-yl)-5-(methylsulfonyl)phenyl)-2-methoxybenzamide], the melting point amounted to 201 °C. Further, in series [1], the “pEC50, in vitro inhibition of cAMP” value stood at 7.3.
In the case of `COc1ccncc1C(=O)Nc1cc(S(C)(=O)=O)ccc1N1CCC(Oc2ccc(F)cc2F)CC1` [Example 7, N-(2-(4-(2,4-difluorophenoxy)piperidin-1-yl)-5-(methylsulfonyl)phenyl)-4-methoxynicotinamide], the melting point was determined as 173 °C. Further, the “pEC50, in vitro inhibition of cAMP” value in series [1] is listed as 7.4.
Regarding `COc1ncccc1C(=O)Nc1cnc(C)nc1N1CCC(Oc2ccc(F)cc2F)CC1` [Example 18, N-(4-(4-(2,4-difluorophenoxy)piperidin-1-yl)-2-methylpyrimidin-5-yl)-2-methoxynicotinamide], the “% reversal” value in series [2] (dose 1 mpk, time 30 minutes) stood at 53%; in series [2] (dose 1 mpk, time 90 minutes), 37%. For the same compound, the “pEC50, in vitro inhibition of cAMP” value in series [1] stood at 6.8.
`COc1cc(N2CCC(Oc3ccc(F)cc3F)CC2)c(NC(=O)c2cccnc2OC)cn1` [Example 20, N-(4-(4-(2,4-difluorophenoxy)piperidin-1-yl)-6-methoxypyridin-3-yl)-2-methoxynicotinamide] registered a melting point of 138 °C. The “pEC50, in vitro inhibition of cAMP” value in series [1] turned out to be 6.9.
Take `COc1ncccc1C(=O)Nc1cnc(C(=O)N(C)C)cc1N1CCC(Oc2ccc(F)cc2F)CC1` [Example 31, 4-(4-(2,4-difluorophenoxy)piperidin-1-yl)-5-(2-methoxynicotinamido)-N,N-dimethylpicolinamide]: in series [2] (dose 1 mpk, time 60 minutes), the “% reversal” value is 47%. The “pEC50, in vitro inhibition of cAMP” value in series [1] turned out to be 7.1.
In the case of `COc1nc(C)ccc1C(=O)Nc1cnc(C(=O)N(C)C)cc1N1CCC(Oc2ccc(F)cc2F)CC1` [Example 283, 4-(4-(2,4-difluorophenoxy)piperidin-1-yl)-5-(2-methoxy-6-methylnicotinamido)-N,N-dimethylpicolinamide], in series [2] (dose 3 mpk, time 60 minutes), the “% reversal” value was determined as 47%. Besides, the “pEC50, in vitro inhibition of cAMP” value in series [1] is given as 6.8.
On to `Cn1cccc(C(=O)Nc2cc(C#N)ccc2N2CCC(Oc3ncc(F)cc3F)CC2)c1=O` [Example 293, N-(5-cyano-2-(4-((3,5-difluoropyridin-2-yl)oxy)piperidin-1-yl)phenyl)-1-methyl-2-oxo-1,2-dihydropyridine-3-carboxamide], for which the “pEC50, in vitro inhibition of cAMP” value in series [1] is recorded as 6.6.
